How the values were obtained:
[1] = test system: spontaneously obese insulin-resistant diabetic mice (KKAy); test: Blood glucose level in KKAy mice fed test feeds; format: in vivo; conditions: for blood glucose level upon finishing the feeding, % of control group: 56th day, control group 306 mg/dl (100%), normal mice 34%; for blood glucose level, mean value: tail vein blood
Experimental: (§1) Firstly, four kinds of feeds were prepared for animal tests.
(§2) Feeding of the mice of those four groups was conducted in a single feeding manner and water was freely taken by each mouse.
(§3) Blood glucose level during the feeding period (until the 51st day) and blood glucose level, blood insulin concentration, blood leptin concentration and adiponectin concentration were measured when the feeding finished (on the 56th day) whereby the action of each ingredient on the mice was checked. Further, in order to compare with the diabetic model mice, normal mice (eight males) of the same 13 weeks age were used as a normal group and their blood was collected upon finishing the feeding followed by measuring each of the above concentrations.
During the feeding period for the two months, blood was collected from tail vein of the mice upon the initiation of the feeding (on the 0th day) and on the 15th, 37th and 51st days from the initiation of the feeding and the blood glucose level therein was measured.

plasma insulin = test: Plasma insulin concentration in KKAy mice at end of feeding; format: in vivo; conditions: 56th day, control group 7.0 ng/ml (100%), normal mice 16%
Experimental: as §1, §2, §3
Concentration of insulin in plasma was measured upon finishing the feeding (on the 56th day).

plasma leptin = test: Plasma leptin concentration in KKAy mice at end of feeding; format: in vivo; conditions: 56th day, control group 7.3 ng/ml (100%), normal mice 15%
Experimental: as §1, §2, §3
Concentration of leptin was also measured upon finishing the feeding (on the 56th day).

plasma adiponectin = test: Plasma adiponectin concentration in KKAy mice at end of feeding; format: in vivo; conditions: 56th day, control group 1.1 μg/ml (100%), normal mice 46%
Experimental: as §1, §2, §3
It has been said that a plasma adiponectin which is an anti-antidiabetic and anti-arteriosclerotic factor derived from fat tissues enhances insulin sensitivity and improves insulin resistant diabetes due to its action of activating the fatty acid oxidation in systemic muscles and reducing the neutral fat amount (Iichiro Shimomura, Toru Funahashi and Yuji Matsuzawa: Adiponectin—Anti-antidiabetic and anti-arteriosclerotic factor derived from fat tissues, Molecular Medicine, Vol. 39, No. 4, 416-423, 2002). […] The concentration of adiponectin was also measured upon finishing the feeding (on the 56th day).

PPAR-γ mRNA in pancreas = test: Quantification of expression of PPAR-γ mRNA in pancreas (real-time quantitative PCR); format: in vivo; conditions: KKAy mice after feeding; ratio to GAPDH mRNA; control group 0.28 (100%), normal mice 161%
Experimental: (§4) According to the conventional method, RNA was extracted from the cells of pancreas and kidney. cDNA was prepared by a reverse transcription reaction from the RNA and quantitative determination of expression amount of mRNA related to diabetes was carried out by means of a real-time quantitative PCR. In the following experiments, quantitative determination of the expression amount of mRNA was analyzed using Mx 3000P (manufactured by Stratagene). In all cases, condition for the PCR was that a hot start was conduced at 95° C. for 10 minutes and then a cycle comprising 95° C. for 30 seconds, 60° C. for 1 minute and 72° C. for 30 seconds was repeated for 45 times. At the same time, dilution rows of five stages were prepared using a control RNA of 5 ng/μl concentration and expression amount of RNA was determined from the resulting standard curve. As to a reagent for the PCR, Brilliant SYBR Green QPCR Master Mix (manufactured by Stratagene) was used in accordance with a protocol for its manual for use. […] Incidentally, expression amount of mRNA of a test substance in each test was indicated in terms of a ng ratio of the commonly expressed GAPDH enzyme to the amount of mRNA (internal standard).
The expression amount of PPAR-γ mRNA was measured by the PCR using the following primer.

[2] = test system: adiponectin mRNA in pancreas; test: Quantification of expression of adiponectin mRNA in pancreas (real-time quantitative PCR); format: in vivo; conditions: KKAy mice after feeding; ratio to GAPDH mRNA; control group 1.07 (100%), normal mice 145%
Experimental: as §4
Expression amount of adiponectin mRNA was measured by the PCR using the following primers.

PPAR-α mRNA in pancreas = test: Quantification of expression of PPAR-α mRNA in pancreas (real-time quantitative PCR); format: in vivo; conditions: KKAy mice after feeding; ratio to GAPDH mRNA; control group 0.61 (100%), normal mice 123%
Experimental: as §4
The expression amount of the PPAR-α mRNA was measured by the PCR using the following primers.

insulin mRNA in pancreas = test: Quantification of expression of insulin mRNA in pancreas (real-time quantitative PCR); format: in vivo; conditions: KKAy mice after feeding; ratio to GAPDH mRNA; control group 5.12×10^4 (100%), normal mice 11%
Experimental: as §4
Expression amount of insulin mRNA in the pancreas was measured by the PCR using the following primers.

PPAR-γ mRNA in kidney = test: Quantification of expression of PPAR-γ mRNA in kidney (real-time quantitative PCR); format: in vivo; conditions: KKAy mice after feeding; ratio to GAPDH mRNA; control group 0.56 (100%)
Experimental: as §4
Expression amount of PPAR-γ mRNA in kidney which adjusts adiponectin and its expression promoting the fatty acid combustion in tissues thereof was measured by the PCR using the following primers.

[3] = test system: adiponectin mRNA in kidney; test: Quantification of expression of adiponectin mRNA in kidney (real-time quantitative PCR); format: in vivo; conditions: KKAy mice after feeding; ratio to GAPDH mRNA; control group 2.53×10^−3 (100%)
Experimental: as §4
Expression amount of adiponectin mRNA in kidney was measured by the PCR using the following primers.

PPAR-α mRNA in kidney = test: Quantification of expression of PPAR-α mRNA in kidney (real-time quantitative PCR); format: in vivo; conditions: KKAy mice after feeding; ratio to GAPDH mRNA; control group 0.532 (100%)
Experimental: as §4
Expression amount of PPAR-α mRNA in kidney was measured by the PCR using the following primers.

[4] = test system: PPARγ in bone marrow cells of femur; test: Expression of PPARγ mRNA in bone marrow cells of femur (real-time quantitative PCR); format: in vivo; conditions: KKAy mice after feeding; control group 5.05×10^−2 (100%)
[5] = test system: patients suffering from osteoporosis; conditions: 32 osteoporosis patients, daily dose 6.4 g (1.7 g as Sr), three months to three years; cited from earlier work
[6] = 15th day of feeding, control group 214
[7] = 37th day of feeding, control group 386
[8] = 51st day of feeding, control group 339
[9] = initiation of feeding (0th day), control group 167

SMILES	blood glucose level upon finishing the feeding, % of control group [1] [%]	blood glucose level, mean value [1, 6] [mg/dL]	blood glucose level, mean value [1, 7] [mg/dL]	blood glucose level, mean value [1, 8] [mg/dL]	blood glucose level, mean value [1, 9] [mg/dL]	plasma insulin concentration, % of control group (plasma insulin) [%]	plasma leptin concentration, % of control group (plasma leptin) [%]	plasma adiponectin concentration, % of control group (plasma adiponectin) [%]	expression amount of PPAR-γ mRNA in pancreas, % of control group (PPAR-γ mRNA in pancreas) [%]	expression amount of adiponectin mRNA in pancreas, % of control group [2] [%]	expression amount of PPAR-α mRNA in pancreas, % of control group (PPAR-α mRNA in pancreas) [%]	expression amount of insulin mRNA in pancreas, % of control group (insulin mRNA in pancreas) [%]	expression amount of PPAR-γ mRNA in kidney, % of control group (PPAR-γ mRNA in kidney) [%]	expression amount of adiponectin mRNA in kidney, % of control group [3] [%]	expression amount of PPAR-α mRNA in kidney, % of control group (PPAR-α mRNA in kidney) [%]	expression amount of PPARγ in bone marrow cells of femur, % of control group [4] [%]	patients in whom improvement was achieved [5] [%]
O=[Si]([O-])[O-].[Na+].[Na+] [Si group, sodium metasilicate]	86	231	268	235	156	68	76	70	125	128	116	9	141	135	171	50	
[Cl-].[Cl-].[Sr+2] [Sr group, strontium chloride]	55	200	288	247	150	70	71	42	181	117	104	64	136	123	169	65	
CC(O)C(=O)[O-].CC(O)C(=O)[O-].[Sr+2] (stereo not drawn) [strontium lactate]																	84

From patent publication US20100028457A1, “AGENT FOR PREVENTION OR TREATMENT OF BLOOD GLUCOSE LEVEL ELEVATION” (UNIVERSITY OF THE RYUKYUS, priority 2006, published 2010)
